Data published in ChEMBL document CHEMBL1138171, “5-Heteroatom-substituted pyrazoles as canine COX-2 inhibitors: Part 2. Structure-activity relationship studies of 5-alkylethers and 5-thioethers” (Bioorg Med Chem Lett, 2006).

How the values were obtained:
Cyclooxygenase-2 = biological target: T1, Cyclooxygenase-2 (Canis lupus familiaris, UniProt Q8SPQ9)
T1 sequence (Q8SPQ9 whole entry): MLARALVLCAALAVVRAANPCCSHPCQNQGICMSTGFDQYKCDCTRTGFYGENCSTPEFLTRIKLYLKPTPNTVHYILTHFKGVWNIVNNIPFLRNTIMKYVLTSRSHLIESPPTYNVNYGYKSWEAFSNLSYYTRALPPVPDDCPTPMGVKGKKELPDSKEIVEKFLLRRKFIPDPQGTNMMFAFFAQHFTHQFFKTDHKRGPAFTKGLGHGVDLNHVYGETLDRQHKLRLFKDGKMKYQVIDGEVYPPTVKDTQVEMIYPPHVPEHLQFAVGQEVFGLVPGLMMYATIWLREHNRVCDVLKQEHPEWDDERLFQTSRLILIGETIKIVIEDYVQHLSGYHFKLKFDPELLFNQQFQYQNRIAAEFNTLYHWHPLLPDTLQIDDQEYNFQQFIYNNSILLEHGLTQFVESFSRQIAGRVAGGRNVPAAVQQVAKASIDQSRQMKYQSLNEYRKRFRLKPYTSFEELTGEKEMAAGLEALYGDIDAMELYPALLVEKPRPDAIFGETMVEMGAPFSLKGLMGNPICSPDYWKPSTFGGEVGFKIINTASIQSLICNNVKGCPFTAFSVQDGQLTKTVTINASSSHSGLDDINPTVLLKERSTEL
Description: Inhibition of COX2 by canine whole blood assay

Canis lupus familiaris = species: Canis lupus familiaris; test: Selectivity for COX1 over COX2 by canine whole blood assay
[1] = biological target: T2, Prostaglandin G/H synthase 1 (Canis lupus familiaris, UniProt Q8HZR1); test: Inhibition of COX1 by canine whole blood assay; assay type: tissue-based
T2 sequence (Q8HZR1 whole entry): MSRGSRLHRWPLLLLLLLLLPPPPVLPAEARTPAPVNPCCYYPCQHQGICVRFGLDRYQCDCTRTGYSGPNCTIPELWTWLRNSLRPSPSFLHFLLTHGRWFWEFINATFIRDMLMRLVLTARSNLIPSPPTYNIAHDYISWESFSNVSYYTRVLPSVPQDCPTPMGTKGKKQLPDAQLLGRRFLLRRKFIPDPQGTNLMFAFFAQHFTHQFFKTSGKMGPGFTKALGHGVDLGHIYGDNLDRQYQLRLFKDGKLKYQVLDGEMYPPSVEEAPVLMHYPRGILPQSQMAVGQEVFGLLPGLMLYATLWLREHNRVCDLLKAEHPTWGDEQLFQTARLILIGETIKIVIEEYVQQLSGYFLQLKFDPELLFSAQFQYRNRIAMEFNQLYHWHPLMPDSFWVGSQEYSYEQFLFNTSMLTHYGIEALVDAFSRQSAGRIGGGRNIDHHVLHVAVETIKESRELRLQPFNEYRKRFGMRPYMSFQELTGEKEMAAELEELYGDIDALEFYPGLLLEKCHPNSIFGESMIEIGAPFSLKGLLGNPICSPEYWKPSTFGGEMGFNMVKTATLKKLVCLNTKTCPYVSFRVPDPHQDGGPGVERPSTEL

[2] = Tmax in Beagle dog at 2 mg/kg, po; assay type: ADME, organism-based, Canis lupus familiaris; parameters: dose 2 mg/kg, route oral; settings: in vivo
Canis familiaris [3] = test: AUC in Beagle dog at 2 mg/kg, po; assay type: ADME, organism-based, Canis lupus familiaris, Plasma; parameters: dose 2 mg/kg, route oral; settings: in vivo
[4] = Cmax in Beagle dog at 2 mg/kg, po; assay type: ADME, organism-based, Canis lupus familiaris; parameters: dose 2 mg/kg, route oral; settings: in vivo
[5] = Half life in Beagle dog at 2 mg/kg, po; assay type: ADME, organism-based, Canis lupus familiaris; parameters: dose 2 mg/kg, route oral; settings: in vivo
[6] = Half life in Beagle dog at 5 mg/kg, po; assay type: ADME, organism-based, Canis lupus familiaris; parameters: dose 5 mg/kg, route oral; settings: in vivo
Canis familiaris [7] = species: Canis familiaris; settings: dog, in vivo, po, 5 mg/kg
Description: AUC in Beagle dog at 5 mg/kg, po

[8] = Cmax in Beagle dog at 5 mg/kg, po; assay type: ADME, organism-based, Canis lupus familiaris; parameters: dose 5 mg/kg, route oral; settings: in vivo
[9] = Tmax in Beagle dog at 5 mg/kg, po; assay type: ADME, organism-based, Canis lupus familiaris; parameters: dose 5 mg/kg, route oral; settings: in vivo

Row | SMILES | IC50 (Cyclooxygenase-2) [nM] | Ratio (Canis lupus familiaris) | IC50 [1] [nM] | further results
1 | CS(=O)(=O)c1ccc(-n2nc(C(F)(F)F)cc2OC2CCCC2)nc1 | > 500 |  |  | 
2 | Cc1c(C(F)(F)F)nn(-c2ccc(S(C)(=O)=O)cn2)c1OC(C)C | > 500 |  |  | 
3 | CC(C)COc1c(C#N)c(C(F)(F)F)nn1-c1ccc(S(C)(=O)=O)cn1 | 110 | 92 | 10000 | 
4 | CS(=O)(=O)c1ccc(-n2nc(C(F)(F)F)c(C#N)c2Oc2ccccc2)nc1 | > 500 |  |  | 
5 | CCOCCSc1c(C#N)c(C(F)(F)F)nn1-c1ccc(S(C)(=O)=O)cn1 | 170 | 11.8 | 2000 | 
6 | CCC(CC)Oc1cc(C(F)(F)F)nn1-c1ccc(S(C)(=O)=O)cn1 | 19600 |  |  | 
7 | CCCSc1c(C#N)c(C(F)(F)F)nn1-c1ccc(S(C)(=O)=O)cn1 | < 50 | > 3.8 | 200 | 
8 | CS(=O)(=O)c1ccc(-n2nc(C(F)(F)F)c(C#N)c2OCC2CC=CCC2)nc1 (stereo not drawn) | 140 | 78 | 10600 | Tmax [2]: 1 h; AUC (Canis familiaris [3]): 742 ng·h/mL; Cmax [4]: 363 ng/mL; half-life [5]: 2 h
9 | C[C@@H]1CN(c2c(C#N)c(C(F)F)nn2-c2ccc(S(C)(=O)=O)cn2)C[C@H](C)O1 | 140 | > 357 | > 50000 | AUC (Canis familiaris [3]): 4830 ng·h/mL
10 | CC(C)Oc1cc(C(F)(F)F)nn1-c1ccc(S(C)(=O)=O)cn1 | > 500 |  |  | half-life [6]: 34.8 h; AUC (Canis familiaris [7]): 6980 ng·h/mL; Cmax [8]: 679 ng/mL; Tmax [9]: 0.8 h
11 | CS(=O)(=O)c1ccc(-n2nc(C(F)(F)F)c(C#N)c2Oc2cccc3c2CCCC3)nc1 | 900 | 0.1 | 100 | 
12 | CC(C)CCCSc1c(C#N)c(C(F)(F)F)nn1-c1ccc(S(C)(=O)=O)cn1 | 400 | 8.1 | 3300 | 
13 | CS(=O)(=O)c1ccc(-n2nc(C(F)(F)F)c(C#N)c2OC2CCCC2)nc1 | 210 |  |  | 
14 | CC(C)C(C)Oc1c(C#N)c(C(F)(F)F)nn1-c1ccc(S(C)(=O)=O)cn1 (stereo not drawn) | 90 | 127 | 11800 | 
15 | COc1cc(C(F)(F)F)nn1-c1ccc(S(C)(=O)=O)cn1 | > 500 |  |  | 
16 | CCCCCSc1c(C#N)c(C(F)(F)F)nn1-c1ccc(S(C)(=O)=O)cn1 | 300 | 11.7 | 3500 | 
17 | CC1CCC(Oc2c(C#N)c(C(F)(F)F)nn2-c2ccc(S(C)(=O)=O)cn2)C1 (stereo not drawn) | 160 | 47 | 7600 | 
18 | CS(=O)(=O)c1ccc(-n2nc(C(F)(F)F)c(C#N)c2Sc2ccccc2)nc1 | 60 | 3.6 | 200 | 
19 | CS(=O)(=O)c1ccc(-n2nc(C(F)(F)F)cc2OC2CCCCC2)nc1 | > 500 |  |  | 
20 | CS(=O)(=O)c1ccc(-n2nc(C(F)(F)F)c(C#N)c2SC2CCCCC2)nc1 | 100 | 31.2 | 3200 | 
21 | CS(=O)(=O)c1ccc(-n2nc(C(F)(F)F)c(C#N)c2OCC2CCC2)nc1 | 80 |  |  | 
22 | CS(=O)(=O)c1ccc(-n2nc(C(F)(F)F)c(C#N)c2OC2CCCCCC2)nc1 | 70 | 117 | 8000 | 
23 | CS(=O)(=O)c1ccc(-n2nc(C(F)(F)F)c(C#N)c2SCc2ccccc2F)nc1 | 40 | 18.4 | 600 | 

Row | SMILES | IC50 (Cyclooxygenase-2) [nM] | Ratio (Canis lupus familiaris) | IC50 [1] [nM] | further results
24 | CCC(CC)Oc1c(C)c(C(F)(F)F)nn1-c1ccc(S(C)(=O)=O)cn1 | > 500 |  |  | 
25 | CCC(COC)Oc1c(C#N)c(C(F)(F)F)nn1-c1ccc(S(C)(=O)=O)cn1 (stereo not drawn) | > 500 |  |  | 
26 | CC1CCCCC1Oc1c(C#N)c(C(F)(F)F)nn1-c1ccc(S(C)(=O)=O)cn1 (stereo not drawn) | 200 | 35 | 7100 | 
27 | CCC(Oc1c(C#N)c(C(F)(F)F)nn1-c1ccc(S(C)(=O)=O)cn1)C(C)C (stereo not drawn) | 170 | > 287 | > 50000 | 
28 | Cc1cccc(Oc2c(C#N)c(C(F)(F)F)nn2-c2ccc(S(C)(=O)=O)cn2)c1C | 170 | 0.3 | 100 | 
29 | CCC(CC)Oc1c(C#N)c(C(F)(F)F)nn1-c1ccc(S(C)(=O)=O)cn1 | < 500 |  |  | 
30 | CS(=O)(=O)c1ccc(-n2nc(C(F)(F)F)c(C#N)c2OC2CCOC2)nc1 (stereo not drawn) | > 500 |  |  | 
31 | CS(=O)(=O)c1ccc(-n2nc(C(F)(F)F)cc2OCC2CC2)nc1 | > 500 |  |  | 
32 | CS(=O)(=O)c1ccc(-n2nc(C(F)(F)F)cc2OCc2cccc3ccccc23)nc1 | > 500 |  |  | 
33 | CCCC(C)Oc1c(C#N)c(C(F)(F)F)nn1-c1ccc(S(C)(=O)=O)cn1 (stereo not drawn) | > 500 |  |  | 
34 | CS(=O)(=O)c1ccc(-n2nc(C(F)(F)F)cc2OCc2ccncc2)nc1 | > 500 |  |  | 
35 | CCCCOc1cc(C(F)(F)F)nn1-c1ccc(S(C)(=O)=O)cn1 | > 500 |  |  | 
36 | CS(=O)(=O)c1ccc(-n2nc(C(F)(F)F)cc2OCc2cccc(F)c2)nc1 | > 500 |  |  | 
37 | Cc1c(C(F)(F)F)nn(-c2ccc(S(C)(=O)=O)cn2)c1OCC(C)C | > 500 |  |  | 
38 | CS(=O)(=O)c1ccc(-n2nc(C(F)(F)F)c(C#N)c2OC2CCC2)nc1 | 550 | 46.3 | 25300 | 
39 | CCC(C)Sc1c(C#N)c(C(F)(F)F)nn1-c1ccc(S(C)(=O)=O)cn1 (stereo not drawn) | < 50 | > 29.5 | 1500 | 
40 | CS(=O)(=O)c1ccc(-n2nc(C(F)(F)F)cc2OCc2ccccc2)nc1 | > 500 |  |  | 
41 | CC(C)COc1cc(C(F)(F)F)nn1-c1ccc(S(C)(=O)=O)cn1 | 4100 |  |  | 
42 | C=C1CCC(COc2c(C#N)c(C(F)(F)F)nn2-c2ccc(S(C)(=O)=O)cn2)CC1 | < 90 | 340 | 29700 | 
43 | CS(=O)(=O)c1ccc(-n2nc(C(F)(F)F)c(C#N)c2SCc2ccccc2)nc1 | 80 | 12.1 | 900 | 
44 | CS(=O)(=O)c1ccc(-n2nc(C(F)(F)F)c(C#N)c2OCC2CCCC2)nc1 | 60 | 6.8 | 400 | 
45 | CC(C)Oc1c(Cl)c(C(F)(F)F)nn1-c1ccc(S(C)(=O)=O)cn1 | > 500 |  |  | 
